pIC50: −log10 of the molar value.
Key:
[1] = test system: recombinant guanylate cyclase reporter cell line; test: Effect on a recombinant guanylate cyclase reporter cell line; format: cell-based; conditions: recombinant guanylate cyclase reporter cell line (Wunder et al. 2005)
Experimental: B-2. Effect on a Recombinant Guanylate Cyclase Reporter Cell Line
The cellular action of the inventive compounds is determined on a recombinant guanylate cyclase reporter cell line as described in F. Wunder et al., Anal. Biochem. 339, 104-112 (2005).

rabbit aorta rings = test: Vasorelaxant action in vitro (phenylephrine-contracted rabbit aorta rings); conditions: Oryctolagus cuniculus; concentration reducing the phenylephrine-induced contraction of rabbit aorta rings by 50%; DMSO 0.1%
Experimental: B-1. Vasorelaxant Action In Vitro
Rabbits are stunned by a blow to the neck and exsanguinated. The aorta is removed, freed from adhering tissue and divided into rings of width 1.5 mm, which are placed individually under prestress into 5 ml organ baths with carbogen-sparged Krebs-Henseleit solution at 37° C. having the following composition (each mM): sodium chloride 119; potassium chloride: 4.8; calcium chloride dihydrate: 1; magnesium sulfate heptahydrate: 1.4; potassium dihydrogenphosphate: 1.2; sodium hydrogencarbonate: 25; glucose: 10. The contractile force is determined with Statham UC2 cells, amplified and digitalized using A/D transducers (DAS-1802 HC, Keithley Instruments Munich), and recorded in parallel on linear recorders. To obtain a contraction, phenylephrine is added to the bath cumulatively in increasing concentration. After several control cycles, the substance to be studied is added in increasing dosage each time in every further run, and the magnitude of the contraction is compared with the magnitude of the contraction attained in the last preceding run. This is used to calculate the concentration needed to reduce the magnitude of the control value by 50% (IC50 value). The standard administration volume is […]; the DMSO content in the bath solution corresponds to 0.1%.

| pIC50 (rabbit aorta rings) | Structure (SMILES) | MEC (minimal effective concentration) [1] [µM] |
| --- | --- | --- |
| 7.32 | CC1(C)C(=O)Nc2nc(-c3nn(Cc4ccccc4F)c4ncccc34)nc(N)c21 [Example 2, 4-amino-2-[1-(2-fluorobenzyl)-1H-pyrazolo[3,4-b]pyridin-3-yl]-5,5-dimethyl-5,7-dihydro-6H-pyrrolo[2,3-d]pyrimidin-6-one] | 0.001 |
| 8.03 | CC1(C)C(=O)Nc2nc(-c3nn(Cc4ccccc4F)c4ncc(F)cc34)nc(N)c21 [Example 3, 4-amino-2-[5-fluoro-1-(2-fluorobenzyl)-1H-pyrazolo[3,4-b]pyridin-3-yl]-5,5-dimethyl-5,7-dihydro-6H-pyrrolo[2,3-d]pyrimidin-6-one] | 0.001 |
| 7.62 | Nc1nc(-c2nn(Cc3ccccc3F)c3ncccc23)nc2c1C1(CCOC1)C(=O)N2 (stereo not drawn) [Example 4, 4′-amino-2′-[1-(2-fluorobenzyl)-1H-pyrazolo[3,4-b]pyridin-3-yl]-4,5-dihydrospiro[furan-3,5′-pyrrolo[2,3-d]pyrimidine]-6′(7′H)-one] | 0.003 |

— patent publication US8765769B2, “Ring-fused 4-aminopyrimidines and use thereof as stimulators of soluable guanylate cyclases” (Bayer Intellectual Property GmbH, priority 2010, dated 2014)
